The experiment addresses T1, MERTK (cMER) A708S (Homo sapiens, UniProt Q12866, A708S).
T1 construct: purchased Thermo Fisher Scientific (Life Technologies) SelectScreen
Nature of the experiment: SelectScreen LanthaScreen. The experiment is classed as binding. The following applies: read-out: % displacement. Here is the method: The in vitro kinase selectivity of NU5455 was determined using the SelectScreen Broad Assay Panel (Thermo Fisher Scientific) involving activity and binding assays (Supplemental Table 1). […] Class IA PI3Ks were measured using the p85α subunit.
Kinase [ATP] % Assay Kinase [ATP] % Assay Kinase [ATP] % Assay Kinase [ATP] % Assay […]
FGR Km app 12.1 Z SRC N1 Km app 3.9 Z MERTK (cMER) A708S n/a 0.6 L RET M918T n/a -3.5 L […]
SGK (SGK1) Km app 8.5 Z MAP4K2 (GCK) Km app 2.7 Z TLK2 n/a -0.3 L STK38 (NDR) n/a -5.9 L
MERTK (cMER) Km app 8.3 Z CDK2/cyclin A Km app 2.7 Z TGFBR1 (ALK5) n/a -0.4 L MATK (HYL) Km app -6.3 Z
FYN Km app 8.3 Z EPHA1 Km app 2.7 Z CLK3 Km app -0.5 Z ABL1 E255K Km app -6.6 Z
TEC n/a 8.1 L CDK2/cyclin E1 n/a 2.7 L MAP3K14 (NIK) n/a -0.5 L STK17A (DRAK1) n/a -6.6 L
KIT V654A n/a 8.1 L TESK2 n/a 2.7 L AKT3 (PKB gamma) Km app -0.5 Z JAK2 JH1 JH2 Km app -6.7 Z
ROS1 Km app 8.0 Z SPHK1 Km app 2.7 A MAP3K9 (MLK1) Km app -0.5 Z PRKACB (PRKAC beta) n/a -6.8 L
FGFR3 K650E Km app 7.9 Z AMPK A2/B1/G1 Km app 2.6 Z IKBKB (IKK beta) Km app -0.6 Z PDGFRA (PDGFR alpha) Km app -6.8 Z
RAF1 (cRAF) Y340D Y341D 100 7.9 Z DYRK3 Km app 2.6 Z CAMK2A (CaMKII alpha) Km app -0.6 Z NEK9 Km app -7.2 Z
PI4KA (PI4K alpha) 10 7.8 A CSNK1D (CK1 delta) Km app 2.6 Z PRKCB1 (PKC beta I) Km app -0.7 Z PDK1 Km app -7.3 Z
HIPK2 Km app 7.8 Z ACVR2A n/a 2.5 L TTK n/a -0.7 L RPS6KB1 (p70S6K) Km app -7.8 Z […]
A general note: In TR-FRET formats the signal depends on donor and acceptor labels being close together.

Structures are written as SMILES.

T1 sequence (Q12866 21-999 A708S): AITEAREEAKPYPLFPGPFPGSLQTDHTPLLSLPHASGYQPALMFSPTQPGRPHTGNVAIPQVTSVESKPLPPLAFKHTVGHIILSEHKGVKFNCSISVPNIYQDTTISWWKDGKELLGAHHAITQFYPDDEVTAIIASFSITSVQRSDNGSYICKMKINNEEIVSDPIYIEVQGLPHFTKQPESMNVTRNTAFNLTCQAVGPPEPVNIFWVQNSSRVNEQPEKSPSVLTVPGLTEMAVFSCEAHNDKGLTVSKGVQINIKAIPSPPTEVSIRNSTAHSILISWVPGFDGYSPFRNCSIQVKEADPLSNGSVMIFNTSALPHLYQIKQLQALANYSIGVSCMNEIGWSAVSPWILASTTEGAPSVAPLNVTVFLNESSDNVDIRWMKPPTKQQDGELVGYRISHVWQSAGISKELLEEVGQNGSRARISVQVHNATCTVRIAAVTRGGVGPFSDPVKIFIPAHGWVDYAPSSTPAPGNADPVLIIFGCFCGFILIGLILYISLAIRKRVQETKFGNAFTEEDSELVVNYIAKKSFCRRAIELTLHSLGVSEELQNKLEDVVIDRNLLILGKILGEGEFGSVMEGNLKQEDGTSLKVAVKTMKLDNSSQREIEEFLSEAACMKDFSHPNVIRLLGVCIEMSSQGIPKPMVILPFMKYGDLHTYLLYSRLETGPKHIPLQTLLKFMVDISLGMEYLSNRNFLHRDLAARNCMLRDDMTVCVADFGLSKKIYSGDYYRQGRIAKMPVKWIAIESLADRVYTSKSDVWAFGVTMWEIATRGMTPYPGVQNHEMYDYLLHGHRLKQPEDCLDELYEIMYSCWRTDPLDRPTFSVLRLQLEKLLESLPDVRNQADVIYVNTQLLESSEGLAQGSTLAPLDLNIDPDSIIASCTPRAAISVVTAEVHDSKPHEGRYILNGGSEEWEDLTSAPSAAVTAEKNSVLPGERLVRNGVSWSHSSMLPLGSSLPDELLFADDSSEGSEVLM

For the compound `CN(C(=O)CN1CCOCC1)c1ccc2sc3c(-c4cccc5c(=O)cc(N6CC7CCC(C6)O7)oc45)cccc3c2c1` [NU5455], the inhibition at 1 µM is 0.6%.

(Values after article PMC6934184, “Selective DNA-PKcs inhibition extends the therapeutic index of localized radiotherapy and chemotherapy” (The Journal of Clinical Investigation, 2019).)
